Measured values from ChEMBL document CHEMBL1201862, “PubChem BioAssay data set” (2004).
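Step 1: Grow cells in 96-well plates. Step 2: Expose to compound for 48 hours at 5 concentrations. Step 3: Interpolate endpoints linearly; if unreached, use highest concentration. GI50 = concentration required for 50% inhibition of growth.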 Activity calls are given as the source filed them. Cut-off read from the data, not from the text of the source: active = GI50 up to about 1.1 µM and inactive = higher.

Assays:
Experiment in all cases: DTP human tumour cell line panel, 48 h
[1] = system: 786-0
[2] = system: A549
[3] = system: ACHN
[4] = system: CAKI-1
[5] = system: CCRF-CEM
[6] = system: COLO 205
[7] = system: DLD-1
[8] = system: DMS-114
[9] = system: DMS-273
[10] = system: EKVX
[11] = system: HCC 2998
[12] = system: HCT-116
[13] = system: HCT-15
[14] = system: HL-60
[15] = system: HOP-18
[16] = system: HOP-62
[17] = system: HT-29
[18] = system: IGROV-1
[19] = system: KM-20L2
[20] = system: KM12
[21] = system: LOX IMVI
[22] = system: LXFL 529
[23] = system: M14
[24] = system: M19-MEL
[25] = system: MOLT-4
[26] = system: Malme-3M
[27] = system: NCI-H226
[28] = system: NCI-H23
[29] = system: NCI-H460
[30] = system: NCI-H522
[31] = system: OVCAR-3
[32] = system: OVCAR-4
[33] = system: OVCAR-5
[34] = system: OVCAR-8
[35] = system: RPMI-8226
[36] = system: RXF 393
[37] = system: SF-268
[38] = system: SF-295
[39] = system: SK-MEL-28
[40] = system: SK-MEL-2
[41] = system: SK-MEL-5
[42] = system: SK-OV-3
[43] = system: SN12C
[44] = system: SNB-19
[45] = system: SNB-75
[46] = system: SNB-78
[47] = system: SR
[48] = system: SW-620
[49] = system: TK-10
[50] = system: U-251
[51] = system: UACC-257
[52] = system: UACC-62
[53] = system: UO-31
[54] = system: A498
[55] = system: K562

## COc1cc(C2C(Cl)C(=O)N2n2cnc3ccccc3c2=O)ccc1O (stereo unspecified)
[1]
  GI50: > 100 µM (inactive)
[2]
  GI50: > 100 µM (inactive)
[3]
  GI50: > 100 µM (inactive)
[4]
  GI50: 70.6 µM (inactive)
[5]
  GI50: 80 µM (inactive)
[6]
  GI50: > 100 µM (inactive)
[7]
  GI50: > 100 µM (inactive)
[8]
  GI50: 89.1 µM (inactive)
[9]
  GI50: > 100 µM (inactive)
[10]
  GI50: > 100 µM (inactive)
[11]
  GI50: > 100 µM (inactive)
[12]
  GI50: > 100 µM (inactive)
[13]
  GI50: 87.3 µM
[14]
  GI50: > 10 µM (inactive)
[15]
  GI50: 56.6 µM (inactive)
[16]
  GI50: > 100 µM (inactive)
[17]
  GI50: > 100 µM (inactive)
[18]
  GI50: 78.2 µM (inactive)
[19]
  GI50: > 100 µM (inactive)
[20]
  GI50: > 100 µM (inactive)
[21]
  GI50: > 100 µM (inactive)
[22]
  GI50: > 100 µM (inactive)
[23]
  GI50: > 100 µM (inactive)
[24]
  GI50: > 100 µM (inactive)
[25]
  GI50: > 100 µM (inactive)
[26]
  GI50: > 100 µM (inactive)
[27]
  GI50: > 100 µM (inactive)
[28]
  GI50: 39.1 µM (inactive)
[29]
  GI50: > 100 µM (inactive)
[30]
  GI50: 34 µM (inactive)
[31]
  GI50: 85.1 µM (inactive)
[32]
  GI50: 94.4 µM (inactive)
[33]
  GI50: > 100 µM (inactive)
[34]
  GI50: > 100 µM (inactive)
[35]
  GI50: 60 µM (inactive)
[36]
  GI50: 67.6 µM (inactive)
[37]
  GI50: 76.4 µM (inactive)
[38]
  GI50: > 100 µM (inactive)
[39]
  GI50: 88.7 µM (inactive)
[40]
  GI50: > 100 µM (inactive)
[41]
  GI50: > 100 µM (inactive)
[42]
  GI50: 68.9 µM (inactive)
[43]
  GI50: 89.5 µM (inactive)
[44]
  GI50: > 100 µM (inactive)
[45]
  GI50: 26.1 µM (inactive)
[46]
  GI50: > 100 µM (inactive)
[47]
  GI50: 83.6 µM (inactive)
[48]
  GI50: > 100 µM (inactive)
[49]
  GI50: > 100 µM (inactive)
[50]
  GI50: 73.1 µM (inactive)
[51]
  GI50: 25.4 µM (inactive)
[52]
  GI50: 60.8 µM (inactive)
[53]
  GI50: 56.4 µM (inactive)

## COc1ccc2cc(C(=O)c3ccccc3C(=O)O)ccc2c1
[1]
  GI50: > 100 µM (inactive)
[54]
  GI50: > 100 µM (inactive)
[2]
  GI50: > 100 µM (inactive)
[3]
  GI50: > 100 µM (inactive)
[4]
  GI50: > 100 µM (inactive)
[5]
  GI50: > 100 µM (inactive)
[6]
  GI50: > 100 µM (inactive)
[7]
  GI50: > 100 µM (inactive)
[8]
  GI50: > 100 µM (inactive)
[9]
  GI50: > 100 µM (inactive)
[10]
  GI50: > 100 µM (inactive)
[11]
  GI50: > 100 µM (inactive)
[12]
  GI50: > 100 µM (inactive)
[13]
  GI50: > 100 µM
[14]
  GI50: > 100 µM (inactive)
[15]
  GI50: > 100 µM (inactive)
[16]
  GI50: > 100 µM (inactive)
[17]
  GI50: > 100 µM (inactive)
[18]
  GI50: > 100 µM (inactive)
[55]
  GI50: > 100 µM (inactive)
[19]
  GI50: > 100 µM (inactive)
[20]
  GI50: > 100 µM (inactive)
[21]
  GI50: > 100 µM (inactive)
[22]
  GI50: > 100 µM (inactive)
[23]
  GI50: > 100 µM (inactive)
[24]
  GI50: > 100 µM (inactive)
[25]
  GI50: > 100 µM (inactive)
[26]
  GI50: > 100 µM (inactive)
[27]
  GI50: > 100 µM (inactive)
[28]
  GI50: > 100 µM (inactive)
[29]
  GI50: > 100 µM (inactive)
[30]
  GI50: > 100 µM (inactive)
[31]
  GI50: > 100 µM (inactive)
[32]
  GI50: > 100 µM (inactive)
[33]
  GI50: > 100 µM (inactive)
[34]
  GI50: > 100 µM (inactive)
[36]
  GI50: > 100 µM (inactive)
[37]
  GI50: > 100 µM (inactive)
[38]
  GI50: > 100 µM (inactive)
[39]
  GI50: > 100 µM (inactive)
[40]
  GI50: > 100 µM (inactive)
[41]
  GI50: > 100 µM (inactive)
[42]
  GI50: > 100 µM (inactive)
[43]
  GI50: > 100 µM (inactive)
[44]
  GI50: > 100 µM (inactive)
[45]
  GI50: > 100 µM (inactive)
[47]
  GI50: > 100 µM (inactive)
[48]
  GI50: > 100 µM (inactive)
[49]
  GI50: > 100 µM (inactive)
[50]
  GI50: > 100 µM (inactive)
[51]
  GI50: > 100 µM (inactive)
[52]
  GI50: > 100 µM (inactive)
[53]
  GI50: > 100 µM (inactive)
